Measured values from patent publication US20230103444A1 (The Regents of the University of Colorado, a Body Corporate, priority 2020, published 2023).
Where two headings read alike, the source gives them in different places.

Experiments:
[1] = test system: vimentin promoter activity; experiment: VimPro-GFP reporter 3D high-content imaging in tumor organoids; format: cell-based, human; conditions: 72 h
Protocol: (§1) After validating hits 5-7 against CHD1L mediated TCF transcription, the ability of these compounds to reverse EMT and other malignant properties in CRC were evaluated. E-cadherin and vimentin are putative biomarkers for the epithelial and mesenchymal phenotypes, respectively. [McDonald et al., 2015] Loss of E-cadherin and gain of vimentin are also clinical biomarkers of poor prognosis. [Yun et al., 2014; Richardson et al., 2012; Dhanasekaran et al., 2001; Kashiwagi et al., 2010; Toiyama et al., 2013] Accordingly, lentiviral promoter driven reporters for E-cadherin (pCDH1-EcadPro-RFP) and vimentin (pCDH1-VimPro-GFP) were developed, which faithfully report E-cadherin and vimentin protein expression, respectively. [Zhou et al., 2016; Abraham et al., 2019] SW620 cells transduced with either EcadPro-RFP or VimPro-GFP were cultured as tumor organoids for 72 h, reaching a diameter of 600 μm. Tumor organoids were treated with compounds 5-7 for an additional 72 h to determine the effective concentration 50 percent (EC50) for modulating promoter activity. Changes in promoter expression was quantified using a 3D confocal image […] based high-content analysis algorithm (FIG. 2A-2B). [Zhou et al., 2016; Abraham et al., 2019]
(§2) Stable VimPro-GFP or EcadPro-RFP SW620 reporter cells were generated using pCDH imPro-GFP-EF1-puro virus or pCDH-EcadPro-mCherry-EF1-puro virus as previously reported. [Zhou et al., 2016; Abraham et al., 2019] The stable fluorescently labeled reporter cells were used to generate tumor organoids as described herein. Tumor organoids were treated with CHD1L inhibitors at 10 μM for an additional 72 h. Following treatment, tumor organoids were stained with 16 μM of Hoechst 33342 for 1 h (nuclei stain). Images were taken with a 5× air objective. Z-stacks were set at 26.5 μm apart for a total of 15 optical slices. Imaging and high-content analysis were performed using an Opera Phenix™ and Harmony® software (PerkinElmer, Hopkinton, Mass.). Nuclei were identified within each layer and cells were found with either GFP or mCherry channel. The fluorescence intensities of each channel were calculated and thresholds were set based on the background intensities. Percentages of GFP or mCherry RFP positive cells were calculated and normalized to the DMSO treated group.
3D High-Content Imaging and Analysis of EMT Dual-Reporter Activity. Tumor organoids were imaged using the Opera Phenix high-content screening system (PerkinElmer) in confocal mode utilizing a 10× air objective (NA 0.3). […] Organoids were also imaged in Brightfield to segment and perform high-content analysis of dual reporter specific fluorescence intensity. […] Both fluorescent signals were quantified and normalized as previously described. […]

[2] = test system: E-cadherin promoter activity; experiment: EcadPro-RFP reporter 3D high-content imaging in tumor organoids; format: cell-based; conditions: 72 h
Protocol: as §1
CHD1L has been reported to confer anti-apoptotic activity by inhibiting activation of caspase-dependent apoptosis. [Li et al., 2013; Sun et al., 2016] Additionally, reversal or inhibition of EMT is known to restore apoptotic activity of cancer cells. [Lu et al., 2014] To determine if CHD1L inhibitors reverse EMT prior to induction of cell death, E-cadherin expression by EcadPro-RFP reporter activity was monitored and cytotoxicity was measured using the CellTox™ Green assay. Cells were treated with CHD1L inhibitors for 72 h and imaged every 2 h.
as §2
3D High-Content Imaging and Analysis of EMT Dual-Reporter Activity. Tumor organoids were imaged using the Opera Phenix high-content screening system (PerkinElmer) in confocal mode utilizing a 10× air objective (NA 0.3). The following excitation and emission (Ex/Em) wavelengths were employed: RFP (561/570-630) and GFP (488/500-550). Organoids were also imaged in Brightfield to segment and perform high-content analysis of dual reporter specific fluorescence intensity. RFP fluorescent signal correlates with E-Cadherin promoter activity, while GFP fluorescent signal is correlates with vimentin promoter activity. Both fluorescent signals were quantified and normalized as previously described. (Esquer, et al., 2021)

HCT116 tumor organoids = experiment: Tumor organoid cytotoxicity (CellTiter-Glo 3D); format: cell-based, human; conditions: Homo sapiens
Protocol: Cell based cytotoxicity dose response and combination studies. […] Plates were then incubated for 3 days before treatment.
Cell Line Tumor Organoid Culture.
Tumor Organoid Cytotoxicity.

[3] = Mouse liver microsome stability; conditions: CD-1, mouse, liver microsomes, pH 7.4, Microsomal stability Mouse t1/2 (min), Table 6
SW620 tumor organoids = experiment: Tumor organoid cytotoxicity (CellTiter-Glo 3D); conditions: Homo sapiens
[4] = Human microsomal stability; format: in vitro ADME; conditions: human microsomes, Table 6, read-out: Microsomal stability Human t1/2
cat-CHD1L ATPase = target: T1, cat-CHD1L ATPase (Homo sapiens, UniProt Q86WJ1); experiment: CHD1L ATPase assay with recombinant catalytic domain (cat-CHD1L); format: biochemical; conditions: for inhibition at 20 µM: confirmed HTS hits, HTS at 20 μM, read-out: inhibition against cat-CHD1L ATPase
T1 construct: inferred from Ni-NTA / imidazole purification; made in house; host or cells: E. coli Rosetta 2 (DE3) pLysS; constructs were a gift from Helena Berglund, Karolinska Institute
T1 sequence (Q86WJ1 16-611 limits assumed): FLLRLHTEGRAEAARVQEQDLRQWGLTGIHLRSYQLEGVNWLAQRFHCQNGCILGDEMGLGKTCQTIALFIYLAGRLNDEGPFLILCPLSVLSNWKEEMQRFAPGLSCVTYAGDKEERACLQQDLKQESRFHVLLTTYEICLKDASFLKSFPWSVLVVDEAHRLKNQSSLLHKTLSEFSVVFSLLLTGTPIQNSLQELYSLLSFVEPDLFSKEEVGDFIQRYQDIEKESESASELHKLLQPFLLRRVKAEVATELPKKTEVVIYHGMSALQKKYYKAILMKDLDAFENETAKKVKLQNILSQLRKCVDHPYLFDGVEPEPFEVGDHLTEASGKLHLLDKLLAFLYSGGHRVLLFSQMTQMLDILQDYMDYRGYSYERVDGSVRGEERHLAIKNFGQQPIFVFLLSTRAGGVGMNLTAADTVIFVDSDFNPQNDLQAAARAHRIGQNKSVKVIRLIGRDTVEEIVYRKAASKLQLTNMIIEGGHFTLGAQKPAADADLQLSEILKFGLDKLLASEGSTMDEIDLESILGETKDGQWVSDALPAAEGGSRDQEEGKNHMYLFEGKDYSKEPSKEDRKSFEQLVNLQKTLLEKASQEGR
Protocol: All reactions were carried out using low volume non-binding surface 384-well plates (Corning Inc., Corning N.Y.). cat-CHD1L or fl-CHD1L (100 nM) and 200 nM c-Myc DNA or mononucelosome (Active Motif, Carlsbad, Calif.) were added to a buffer containing 50 mM Tris pH 7.5, 50 mM NaCl, 1 mM DTT, 5% glycerol, and the reaction was initiated by the addition of 10 μM ATP (New England Biolabs, Ipswich, Mass.) to a total volume of 10 μL and incubated at 37° C. for 1 h. ATPase activity was assayed by adding 500 nM of Phosphate Sensor (Life Technologies, Carlsbad, Calif.), containing labeled phosphate-binding protein, specifically labeled with the fluorophore MDCC, and measuring excitation (430 nm) and emission (450 nm) immediately on an EnVision® plate reader (PerkinElmer, Hopkinton, Mass.). An inorganic phosphate standard curve was used to convert the fluorescence to [Pi], and enzyme kinetics were determined using Prism8 (GraphPad Software, San Diego, Calif.).
Assay composition was the same as described above using cat-CHD1L, except that the reaction mixture volume was modified to accommodate addition of drug or DMSO. Using a Janus® liquid handler (PerkinElmer, Hopkinton, Mass.), a selected amount of compounds dissolved in 100% DMSO were mixed with 50 mM Tris pH 7.5, 50 mM NaCl, 1 mM DTT, 5% glycerol buffer to 200 μM in 10% DMSO. […] The negative control used was 1% DMSO and 10 mM EDTA was used as a positive control. Reactions were initiated with the addition of 10 μM ATP and incubated at 37° C. for 1 h. ATPase activity was measured by fluorescence by adding 500 nM Phosphate Sensor. cat-CHD1L was screened against a 20,000-compound diversity set from Life Chemicals (Woodbridge, Conn.) and a Kinase Inhibitor library from Selleck Chemicals (Houston, Tex.).
CHD1L Enzyme ATPase Assay. […] All reactions were carried out using low volume nonbinding surface 384-well plates (Corning Inc., Corning, N.Y.). […] The reaction was initiated by the addition of 10 μmol/L ATP (New England Biolabs, Ipswich, Mass.) to a total volume of 10 μL and incubated at 37° C. for 1 hour. ATPase activity was measured by adding 500 nmol/L of Phosphate Sensor (ThermoFisher, Waltham, Mass.) measuring excitation (430 nm) and emission (450 nm) immediately on an Envision plate reader (PerkinElmer, Waltham, Mass.). Background signal was determined by using all assay components excluding the enzyme.

TCF-transcription = experiment: TOPflash TCF-transcriptional reporter assay; format: cell-based, human; conditions: TOPflash reporter in CRC cell lines (SW620, HCT116, DLD1CHD1L-OE), 24 h
Protocol: TOPflash assay (Millipore, Billerica, Mass.) was used to evaluate TCF transcriptional activity in CRC cells. A total of 20,000 cells per well were plated into 96-well white plates and transfected with TransIT®-LT1 transfection reagent (Mirus, Madison, Wis.). Cells were incubated with transfection mix for 24 h. Next, cells were washed with phosphate-buffered solution (PBS) and a 1:1 ratio of PBS:ONE-Glo™ luciferase reagent Promega (Madison, Wis.) was added and the luminescence was detected within 10 min. A duplicate experiment was conducted to measure cell viability using CellTiter-Glo® Luminescent Cell Viability Assay (Promega, Madison, Wis.), which was used to normalize TOPflash luminescence to obtain the fold change in TCF activity. Experiments were replicated 2× (n=3 for each experiment).
TCF-transcriptional Reporter Assay. […] Afterwards, cells from the white solid bottom plate were carefully washed with PBS and a 1:1 ratio of PBS:One-Glo Luciferase Assay System (Promega) was added, incubated for 10 min, and luminescence was quantified on Envision plate reader (PerkinElmer) for TCF-activity. As a control, cells from the clear plate were lysed with Mammalian Cell Lysis Buffer (Promega) and the total protein from each well was quantified with BCA assay (ThermoFisher).

[5] = SW620 or HCT116 tumor organoids
[6] = HCT-116, 72 h, Table 6, read-out: 3 D Cytotoxicity 72 hr IC50 (μM) HCT116
[7] = HCT-116, single agent, Table 4A, read-out: Tumor Organoid Cytotoxicity IC50 (μM) HCT116
[8] = SW-620, read-out: IC50 of cytotoxicity in SW620 cells
[9] = units given with the values (nM, μM), read-out: activity in dose response studies against cat-CHD1L ATPase (IC50, FIG. 1A)
[10] = Table 6, read-out: cat-CHD1L inhibition IC50
[11] = SW-620, 72 h, read-out: 3 D Cytotoxicity 72 hr IC50 (μM) SW620

| SMILES | half-life at 10 μM [3] [min] | half-life [4] [min] | IC50 (cat-CHD1L ATPase; [10]) [nM] | IC50 (HCT116 tumor organoids; [6]) [µM] | IC50 (SW620 tumor organoids; [8]) [µM] | IC50 (SW620 tumor organoids; [11]) [µM] | further results |
| --- | --- | --- | --- | --- | --- | --- | --- |
| Cc1cc(Nc2ccc(NC(=O)Cc3c[nH]c4ccccc34)cc2)nc(N2CCCC2)n1 [Compound 6.5, 2-(1H-indol-3-yl)-N-(4-((6-methyl-2-(pyrrolidin-1-yl)pyrimidin-4-yl)amino)phenyl)acetamide] | 70.2 | – | – | 2.2 | < 10 | – | downregulation of vimentin promoter activity (VimPro-GFP), in words [1, 5]: marked down-regulation of the VimPro-GFP; upregulation of E-cadherin promoter activity (EcadPro-RFP), in words [2, 5]: upregulation of EcadPro-RFP; IC50 (HCT116 tumor organoids; [7]): 2.2 µM |
| Cc1cc(Nc2ccc(NC(=O)Cc3cccc4ccccc34)cc2)nc(N2CCCC2)n1 [Compound 6.16, N-(4-((6-methyl-2-(pyrrolidin-1-yl)pyrimidin-4-yl)amino)phenyl)-2-(naphthalen-1-yl)acetamide] | 55.5 | 59.5 | – | 2.4 | < 10 | – | IC50 (HCT116 tumor organoids; [7]): 2.43 µM |
| CCc1nnc(NS(=O)(=O)c2ccc(NC(=O)c3nc4ccccc4s3)cc2)s1 [Compound 4] | – | – | – | – | – | – | inhibition at 20 µM (cat-CHD1L ATPase): > 50%; IC50 (cat-CHD1L ATPase; [9]): 900 to 5000 nM; inhibition of TCF-transcription, in words (TCF-transcription): modest activity in cells with no dose dependent inhibition |
| Cc1ccc(Nc2nc(N3CCN(CCO)CC3)nc3nccnc23)cc1Cl [Compound 7] | – | – | – | – | – | – | inhibition at 20 µM (cat-CHD1L ATPase): > 50%; IC50 (cat-CHD1L ATPase; [9]): 900 to 5000 nM; EC50 ([1]; Homo sapiens, SW-620, read-out: EC50 downregulation of vimentin promoter activity, SW620 tumor organoids): 12.8 ± 1.3 µM; EC50 ([2]; Homo sapiens, SW-620, read-out: EC50 upregulation of E-cadherin promoter activity, SW620 tumor organoids): 28 ± 0.003 µM |

Continued, in another order:

| half-life at 10 μM [3] [min] | half-life [4] [min] | IC50 (cat-CHD1L ATPase; [10]) [nM] | SMILES | IC50 (HCT116 tumor organoids; [6]) [µM] | IC50 (SW620 tumor organoids; [8]) [µM] | IC50 (SW620 tumor organoids; [11]) [µM] | further results |
| --- | --- | --- | --- | --- | --- | --- | --- |
| 70.5 | 88.6 | > 20000 | Cc1cc(Nc2ccc(NC(=O)Cc3ccco3)cc2)nc(N2CCCC2)n1 [Compound 6.39] | 10.8 | – | 14.2 | – |
| 62 | 171 | 500 | Cc1cc(N2CCCC2)nc(NCc2ccc(NC(=O)Cc3cc(Br)cs3)cc2)n1 [Compound 6.41] | 21.3 | – | 13.5 | – |
| 76 | 38.2 | 300 | Cc1cc(NCc2ccc(NC(=O)Cc3cc(Br)cs3)cc2)nc(N2CCCC2)n1 [Compound 6.33] | 11.6 | < 10 | 4 | CHD1L enzyme inhibition, in words (cat-CHD1L ATPase; recombinant cat-CHD1L): good enzyme inhibition |
